What was measured:
[1] = set-up: method as in earlier work; conditions: all aqueous solutions, including H2O; cited from earlier work
[2] = Apparent thermodynamic analysis of CBZM dissolution (van't Hoff and Gibbs equations) and enthalpy–entropy compensation; assay type: physicochemical
Protocol: All of the CBZM’s apparent thermodynamic properties were determined at Thm. The reported equation was used to determine the Thm. Then, 308 K was calculated as the Thm for CBZM. Several thermodynamic parameters were obtained via an apparent thermodynamic analysis. These parameters were computed using the van’t Hoff and Gibbs equations. Using Equation (12) and Thm = 308 K, the ΔsolH^0 data for CBZM in cosolvent mixtures and pure solvents were calculated:(12) ∂ln xe/∂1/T−1/ThmP=−ΔsolH^0/R
The ΔsolH^0 for CBZM was obtained by the plotted van’t Hoff curves between ln xe of CBZM and 1/T−1/Thm .
Furthermore, at Thm = 308 K, the ΔsolG^0 for CBZM in cosolvent combinations and pure solvents was derived utilizing the Krug et al. approach by Equation (13):(13) ΔsolG^0=−RThm×intercept where the intercept values for CBZM in cosolvent combinations and pure solvents were calculated using the van’t Hoff plots depicted in Figure 5.
By Equation (14), the ΔsolS^0 for CBZM in cosolvent mixtures and neat solvents was derived:(14) ΔsolS^0=ΔsolH^0−ΔsolG^0/Thm
An enthalpy–entropy compensation analyses was performed, as previously described, to assess the solvation behavior of CBZM in cosolvent mixtures and neat solvents. Weighted curves of ΔsolH° vs. ΔsolG° were constructed at Thm = 308 K for this experiment.

[3] = set-up: method as in doi:10.1016/j.molliq.2020.115146; conditions: cited from earlier work
[4] = Shake flask solubility of CBZM in DMSO aqueous solutions and pure solvents; assay type: physicochemical; conditions: for Experimental mole fraction solubility (xe): 101.1 kPa
Protocol: A digital analytical balance (Mettler Toledo, Greifensee, Switzerland) with a sensitivity of 0.10 mg was used to measure the mass of each cosolvent mixture. A series of DMSO aqueous solutions (m = 0.10–0.90), were investigated. Three replications of each cosolvent mixture were taken. CBZM’s solubility values in numerous DMSO aqueous solutions (m = 0.0–1.0) and pure solvents were determined utilizing a shake flask methodology at five distinct temperature and fixed atmospheric pressure. Essentially, extra CBZM crystals were mixed with known amounts of each cosolvent mixture and neat solvents in triplicates. All the mixtures were vortexed for about 5 min. To achieve equilibrium, the resulting mixes were transferred to a WiseBath WSB Shaking Water Bath (Model WSB-18/30/-45, Daihan Scientific Co. Ltd., Seoul, Republic of Korea) for 72 h at 100 rpm for continuous shaking. After the samples reached equilibrium, they were removed from the shaker and centrifuged at 5000 rpm for 30 min at 298.2 K. The uncertainty in water bath temperature was recorded as 0.15 K. The equilibrium time of 72 h was optimized by preliminary experiments. Under preliminary experiments, CBZM solubility was measured at 24, 48, […], 72, and 96 h. […] After the supernatants were separated and diluted with mobile phase (if needed), the CBZM content was evaluated at 244 nm using a previously described HPLC technique. By using their standard formulae found in the literature, CBZM xe values were obtained.

[5] = DMSO mass fraction m = 0.0, Thm = 308 K
[6] = DMSO mass fraction m = 0.1, Thm = 308 K
[7] = DMSO mass fraction m = 0.2, Thm = 308 K
[8] = DMSO mass fraction m = 0.3, Thm = 308 K
[9] = DMSO mass fraction m = 0.4, Thm = 308 K
[10] = DMSO mass fraction m = 0.5, Thm = 308 K
[11] = DMSO mass fraction m = 0.6, Thm = 308 K
[12] = DMSO mass fraction m = 0.7, Thm = 308 K
[13] = DMSO mass fraction m = 0.8, Thm = 308 K
[14] = DMSO mass fraction m = 0.9, Thm = 308 K
[15] = DMSO mass fraction m = 1.0, Thm = 308 K

COc1cc2nccc(Oc3ccc(NC(=O)C4(C(=O)Nc5ccc(F)cc5)CC4)cc3)c2cc1OC [CBZM, Cabozantinib malate]
Solubility in aqueous solutions [1]: nearly insoluble | Apparent standard Gibbs energy ΔsolG^0 [2, 5]: 8.929 kcal/mol | Apparent standard enthalpy ΔsolH^0 [2, 5]: 12.6 kcal/mol | Apparent standard entropy ΔsolS^0 [2, 5]: 49.82 J mol^−1 K^−1 | Apparent standard Gibbs energy ΔsolG^0 [2, 6]: 8.224 kcal/mol | Apparent standard enthalpy ΔsolH^0 [2, 6]: 11.48 kcal/mol | Apparent standard entropy ΔsolS^0 [2, 6]: 44.21 J mol^−1 K^−1 | Apparent standard Gibbs energy ΔsolG^0 [2, 7]: 7.533 kcal/mol | Apparent standard enthalpy ΔsolH^0 [2, 7]: 10.47 kcal/mol | Apparent standard entropy ΔsolS^0 [2, 7]: 39.92 J mol^−1 K^−1 | Apparent standard Gibbs energy ΔsolG^0 [2, 8]: 6.84 kcal/mol | Apparent standard enthalpy ΔsolH^0 [2, 8]: 9.696 kcal/mol | Apparent standard entropy ΔsolS^0 [2, 8]: 38.80 J mol^−1 K^−1 | Apparent standard Gibbs energy ΔsolG^0 [2, 9]: 6.152 kcal/mol | Apparent standard enthalpy ΔsolH^0 [2, 9]: 8.559 kcal/mol | Apparent standard entropy ΔsolS^0 [2, 9]: 32.71 J mol^−1 K^−1 | Apparent standard Gibbs energy ΔsolG^0 [2, 10]: 5.452 kcal/mol | Apparent standard enthalpy ΔsolH^0 [2, 10]: 7.835 kcal/mol | Apparent standard entropy ΔsolS^0 [2, 10]: 32.35 J mol^−1 K^−1 | Apparent standard Gibbs energy ΔsolG^0 [2, 11]: 4.768 kcal/mol | Apparent standard enthalpy ΔsolH^0 [2, 11]: 6.697 kcal/mol | Apparent standard entropy ΔsolS^0 [2, 11]: 26.18 J mol^−1 K^−1 | Apparent standard Gibbs energy ΔsolG^0 [2, 12]: 4.07 kcal/mol | Apparent standard enthalpy ΔsolH^0 [2, 12]: 5.779 kcal/mol | Apparent standard entropy ΔsolS^0 [2, 12]: 23.21 J mol^−1 K^−1 | Apparent standard Gibbs energy ΔsolG^0 [2, 13]: 3.382 kcal/mol | Apparent standard enthalpy ΔsolH^0 [2, 13]: 4.656 kcal/mol | Apparent standard entropy ΔsolS^0 [2, 13]: 17.30 J mol^−1 K^−1 | Apparent standard Gibbs energy ΔsolG^0 [2, 14]: 2.674 kcal/mol | Apparent standard entropy ΔsolS^0 [2, 14]: 9.05 J mol^−1 K^−1 | Apparent standard Gibbs energy ΔsolG^0 [2, 15]: 2 kcal/mol | Apparent standard enthalpy ΔsolH^0 [2, 15]: 2.732 kcal/mol | Apparent standard entropy ΔsolS^0 [2, 15]: 9.91 J mol^−1 K^−1 | Solvation-driven process (enthalpy–entropy compensation) ([2]; all cosolvent combinations and pure solvents, Thm = 308 K): enthalpy-driven | Nature of dissolution ([2]; all cosolvent combinations, including neat solvents): endothermic and entropy-driven | Total HSP (δt) [3]: 25.50 MPa^1/2 | Experimental mole fraction solubility (xe) ([4]; DMSO mass fraction m = 0.0, T = 298.2 K): 2.24 × 10^−7 mole fraction | Experimental mole fraction solubility (xe) ([4]; DMSO mass fraction m = 0.0, T = 303.2 K): 3.37 × 10^−7 mole fraction | Experimental mole fraction solubility (xe) ([4]; DMSO mass fraction m = 0.0, T = 308.2 K): 4.85 × 10^−7 mole fraction | Experimental mole fraction solubility (xe) ([4]; DMSO mass fraction m = 0.0, T = 313.2 K): 6.55 × 10^−7 mole fraction | Experimental mole fraction solubility (xe) ([4]; DMSO mass fraction m = 0.0, T = 318.2 K): 8.53 × 10^−7 mole fraction | Experimental mole fraction solubility (xe) ([4]; DMSO mass fraction m = 0.1, T = 298.2 K): 7.46 × 10^−7 mole fraction | Experimental mole fraction solubility (xe) ([4]; DMSO mass fraction m = 0.1, T = 303.2 K): 1.12 × 10^−6 mole fraction | Experimental mole fraction solubility (xe) ([4]; DMSO mass fraction m = 0.1, T = 308.2 K): 1.52 × 10^−6 mole fraction | Experimental mole fraction solubility (xe) ([4]; DMSO mass fraction m = 0.1, T = 313.2 K): 2.01 × 10^−6 mole fraction | Experimental mole fraction solubility (xe) ([4]; DMSO mass fraction m = 0.1, T = 318.2 K): 2.55 × 10^−6 mole fraction | Experimental mole fraction solubility (xe) ([4]; DMSO mass fraction m = 0.2, T = 298.2 K): 2.48 × 10^−6 mole fraction | Experimental mole fraction solubility (xe) ([4]; DMSO mass fraction m = 0.2, T = 303.2 K): 3.48 × 10^−6 mole fraction | Experimental mole fraction solubility (xe) ([4]; DMSO mass fraction m = 0.2, T = 308.2 K): 4.69 × 10^−6 mole fraction | Experimental mole fraction solubility (xe) ([4]; DMSO mass fraction m = 0.2, T = 313.2 K): 6.00 × 10^−6 mole fraction | Experimental mole fraction solubility (xe) ([4]; DMSO mass fraction m = 0.2, T = 318.2 K): 7.57 × 10^−6 mole fraction | Experimental mole fraction solubility (xe) ([4]; DMSO mass fraction m = 0.3, T = 298.2 K): 8.00 × 10^−6 mole fraction | Experimental mole fraction solubility (xe) ([4]; DMSO mass fraction m = 0.3, T = 303.2 K): 1.11 × 10^−5 mole fraction | Experimental mole fraction solubility (xe) ([4]; DMSO mass fraction m = 0.3, T = 308.2 K): 1.46 × 10^−5 mole fraction | Experimental mole fraction solubility (xe) ([4]; DMSO mass fraction m = 0.3, T = 313.2 K): 1.83 × 10^−5 mole fraction | Experimental mole fraction solubility (xe) ([4]; DMSO mass fraction m = 0.3, T = 318.2 K): 2.25 × 10^−5 mole fraction | Experimental mole fraction solubility (xe) ([4]; DMSO mass fraction m = 0.4, T = 298.2 K): 2.66 × 10^−5 mole fraction | Experimental mole fraction solubility (xe) ([4]; DMSO mass fraction m = 0.4, T = 303.2 K): 3.48 × 10^−5 mole fraction | Experimental mole fraction solubility (xe) ([4]; DMSO mass fraction m = 0.4, T = 308.2 K): 4.42 × 10^−5 mole fraction | Experimental mole fraction solubility (xe) ([4]; DMSO mass fraction m = 0.4, T = 313.2 K): 5.49 × 10^−5 mole fraction | Experimental mole fraction solubility (xe) ([4]; DMSO mass fraction m = 0.4, T = 318.2 K): 6.59 × 10^−5 mole fraction | Experimental mole fraction solubility (xe) ([4]; DMSO mass fraction m = 0.5, T = 298.2 K): 8.61 × 10^−5 mole fraction | Experimental mole fraction solubility (xe) ([4]; DMSO mass fraction m = 0.5, T = 303.2 K): 1.12 × 10^−4 mole fraction | Experimental mole fraction solubility (xe) ([4]; DMSO mass fraction m = 0.5, T = 308.2 K): 1.38 × 10^−4 mole fraction | Experimental mole fraction solubility (xe) ([4]; DMSO mass fraction m = 0.5, T = 313.2 K): 1.69 × 10^−4 mole fraction | Experimental mole fraction solubility (xe) ([4]; DMSO mass fraction m = 0.5, T = 318.2 K): 1.98 × 10^−4 mole fraction | Experimental mole fraction solubility (xe) ([4]; DMSO mass fraction m = 0.6, T = 303.2 K): 3.47 × 10^−4 mole fraction | Experimental mole fraction solubility (xe) ([4]; DMSO mass fraction m = 0.6, T = 308.2 K): 4.21 × 10^−4 mole fraction | Experimental mole fraction solubility (xe) ([4]; DMSO mass fraction m = 0.6, T = 313.2 K): 4.95 × 10^−4 mole fraction | Experimental mole fraction solubility (xe) ([4]; DMSO mass fraction m = 0.6, T = 318.2 K): 5.79 × 10^−4 mole fraction | Experimental mole fraction solubility (xe) ([4]; DMSO mass fraction m = 0.7, T = 298.2 K): 9.33 × 10^−4 mole fraction | Experimental mole fraction solubility (xe) ([4]; DMSO mass fraction m = 0.7, T = 303.2 K): 1.12 × 10^−3 mole fraction | Experimental mole fraction solubility (xe) ([4]; DMSO mass fraction m = 0.7, T = 308.2 K): 1.31 × 10^−3 mole fraction | Experimental mole fraction solubility (xe) ([4]; DMSO mass fraction m = 0.7, T = 313.2 K): 1.53 × 10^−3 mole fraction | Experimental mole fraction solubility (xe) ([4]; DMSO mass fraction m = 0.7, T = 318.2 K): 1.72 × 10^−3 mole fraction | Experimental mole fraction solubility (xe) ([4]; DMSO mass fraction m = 0.8, T = 298.2 K): 3.09 × 10^−3 mole fraction | Experimental mole fraction solubility (xe) ([4]; DMSO mass fraction m = 0.8, T = 303.2 K): 3.53 × 10^−3 mole fraction | Experimental mole fraction solubility (xe) ([4]; DMSO mass fraction m = 0.8, T = 308.2 K): 3.99 × 10^−3 mole fraction | Experimental mole fraction solubility (xe) ([4]; DMSO mass fraction m = 0.8, T = 313.2 K): 4.55 × 10^−3 mole fraction | Experimental mole fraction solubility (xe) ([4]; DMSO mass fraction m = 0.8, T = 318.2 K): 5.04 × 10^−3 mole fraction | Experimental mole fraction solubility (xe) ([4]; DMSO mass fraction m = 0.9, T = 298.2 K): 1.07 × 10^−2 mole fraction | Experimental mole fraction solubility (xe) ([4]; DMSO mass fraction m = 0.9, T = 303.2 K): 1.15 × 10^−2 mole fraction | Experimental mole fraction solubility (xe) ([4]; DMSO mass fraction m = 0.9, T = 308.2 K): 1.26 × 10^−2 mole fraction | Experimental mole fraction solubility (xe) ([4]; DMSO mass fraction m = 0.9, T = 313.2 K): 1.38 × 10^−2 mole fraction | Experimental mole fraction solubility (xe) ([4]; DMSO mass fraction m = 0.9, T = 318.2 K): 1.52 × 10^−2 mole fraction | Experimental mole fraction solubility (xe) ([4]; DMSO mass fraction m = 1.0, T = 298.2 K): 3.29 × 10^−2 mole fraction | Experimental mole fraction solubility (xe) ([4]; DMSO mass fraction m = 1.0, T = 303.2 K): 3.50 × 10^−2 mole fraction | Experimental mole fraction solubility (xe) ([4]; DMSO mass fraction m = 1.0, T = 308.2 K): 3.78 × 10^−2 mole fraction | Experimental mole fraction solubility (xe) ([4]; DMSO mass fraction m = 1.0, T = 313.2 K): 4.02 × 10^−2 mole fraction | Experimental mole fraction solubility (xe) ([4]; DMSO mass fraction m = 1.0, T = 318.2 K): 4.38 × 10^−2 mole fraction | Solubility classification in DMSO ([4]; neat DMSO, 298.2–318.2 K): freely soluble | Solubility classification in H2O ([4]; neat H2O, 298.2–318.2 K): practically insoluble

From PMC10707982, “Solubility and Thermodynamics Data of Cabozantinib Malate in Various Aqueous Solutions of Dimethyl Sulfoxide at Different Temperatures” (Molecules, 2023)
